Values quoted from earlier work in patent US7678393B1, “Mixture composition and method useful for topical and internal application” (DB Laboratories LLC, priority 2006, dated 2010).

Legend:
Interlukin-2 (IL-2) = Interlukin-2 (IL-2) (Homo sapiens, UniProt P60568); conditions: by direct binding of IL-2
F0F1-ATPase/ATP synthase = conditions: micromolar concentrations
cyclooxygenase-2 (COX-2) = conditions: LPS stimulation
iNOS = conditions: LPS stimulation

Sequence of Interlukin-2 (IL-2) (P60568 21-153, species assumed): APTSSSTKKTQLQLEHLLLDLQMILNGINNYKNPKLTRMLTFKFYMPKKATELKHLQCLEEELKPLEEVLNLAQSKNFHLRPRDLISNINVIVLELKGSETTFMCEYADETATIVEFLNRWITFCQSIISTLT

Compound	inhibition of F0F1-ATPase/ATP synthase (F0F1-ATPase/ATP synthase)	COX-2 activation by LPS (cyclooxygenase-2 (COX-2))	iNOS activation by LPS (iNOS)	other results
Lipoteichoic acid [LTA]	–	–	–	bound in plasma lipoproteins, efficiency (plasma lipoproteins; plasma): > 95%; distribution in HDL (plasma lipoproteins; plasma lipoproteins): 68%±10%; distribution in LDL (plasma lipoproteins; plasma lipoproteins): 28%±8%; distribution in VLDL (plasma lipoproteins; plasma lipoproteins): 4%±5%; Interlukin-2 function (Interlukin-2 (IL-2)): inhibits
O=C(OC[C@H]1O[C@@H](OC(=O)c2cc(O)c(O)c(OC(=O)c3cc(O)c(O)c(O)c3)c2)[C@H](OC(=O)c2cc(O)c(O)c(OC(=O)c3cc(O)c(O)c(O)c3)c2)[C@@H](OC(=O)c2cc(O)c(O)c(OC(=O)c3cc(O)c(O)c(O)c3)c2)[C@@H]1OC(=O)c1cc(O)c(O)c(OC(=O)c2cc(O)c(O)c(O)c2)c1)c1cc(O)c(O)c(OC(=O)c2cc(O)c(O)c(O)c2)c1 [tannic acid]	showed inhibition at micromolar concentrations	–	–	–
O=C(O[C@@H]1Cc2c(O)cc(O)cc2O[C@@H]1c1cc(O)c(O)c(O)c1)c1cc(O)c(O)c(O)c1 [(−)epigallocatechin-3-gallate]	showed inhibition at micromolar concentrations	inhibited	inhibited	–
O=c1cc(-c2ccc(O)cc2)oc2cc(O)cc(O)c12 [apigenin]	–	inhibited	inhibited	–
Oc1ccc(/C=C/c2cc(O)cc(O)c2)cc1 [resveratol]	showed inhibition at micromolar concentrations	–	–	–
O=c1c(O)c(-c2ccc(O)cc2)oc2cc(O)cc(O)c12 [kaempferol]	showed inhibition at micromolar concentrations	inhibited	inhibited	–
